The values below are quoted from earlier work in US20240207270A1, “COMPOUNDS AND COMPOSITIONS FOR MODULATING LIPID METABOLISM” (WaveBreak Inc., priority 2021, published 2024).

This data set concerns the target ROCK. To be noted: ATP-competitive inhibitor of ROCK.

Turning to `Cc1cncc2cccc(S(=O)(=O)N3CCCNC[C@@H]3C)c12` [(S)-H-1152], the Ki was 1.6 nM.

By Ki is commonly meant a dissociation constant, usually derived from enzyme kinetics or from competition with a known ligand.
